# Experimental data as given in patent US9586931B2 (Merck Sharp & Dohme Corp., priority 2012, dated 2017).
# Molecular target: T1, recombinant human GST-Syk (Homo sapiens, UniProt P43405)
# T1 construct: purchased Carna Biosciences 08-176
# Assay: Homogeneous Time-Resolved Fluorescence (HTRF) assay for the recombinant human Syk enzyme
# Format: biochemical
# Conditions: recombinant human GST-Syk 5 pM, ATP 25 μM, 10-dose titration 10 μM to 0.508 nM; read-out: rhSYK Activity IC50
# Procedure, shortened: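 GST-hSyk fusion protein phosphorylated a peptide for 45 min at room temperature. The reaction was quenched with 2 nM Eu-anti-phosphotyrosine antibody and 70 nM SA-APC in 15 mM Tris pH 7.5, 40 mM EDTA, 0.01% Tween 20. The HTRF signal was read after 30 min.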
row,Compound,IC50
1,"Cc1cc(Nc2nccc(C(F)(F)F)n2)cc(-c2cn(CC3(O)CCOCC3)nn2)c1 [Example 4.14, 4-{[4-(3-methyl-5-{[4-(trifluoromethyl)pyrimidin-2-yl]amino}phenyl)-1H-1,2,3-triazol-1-yl]methyl}tetrahydro-2H-pyran-4-ol]",48.1 nM
2,"COC(=O)CCn1cc(-c2cc(C)cc(Nc3cc(C(F)(F)F)ccn3)n2)nn1 [Example 5.10, methyl 3-[4-(4-methyl-6-{[4-(trifluoromethyl)pyridin-2-yl]amino}pyridin-2-yl)-1H-1,2,3-triazol-1-yl]propanoate]",40.4 nM
3,"COC(=O)C1CCC(n2cc(-c3cc(C)cc(Nc4cc(C(F)(F)F)ccn4)n3)nn2)c2ccccc21 (racemic) [Example 5.25, methyl 4-[4-(4-methyl-6-{[4-(trifluoromethyl)pyridin-2-yl]amino}pyridin-2-yl)-1H-1,2,3-triazol-1-yl]-1,2,3,4-tetrahydronaphthalene-1-carboxylate]",525 nM
4,"Cc1cc(Nc2cc(C3CCC3)ccn2)nc(-c2cn(C(C)c3ccc(C(=O)O)cc3)nn2)c1 (stereo not drawn) [Example 2.10, 4-[1-(4-{6-[(4-cyclobutylpyridin-2-yl)amino]-4-methylpyridin-2-yl}-1H-1,2,3-triazol-1-yl)ethyl]benzoic acid]",3.7 nM
5,"Cc1cc(Nc2cc(C(F)(F)F)ccn2)nc(-c2cn(C[C@@H](O)CO)nn2)c1 [Example 5.19, (2R)-3-[4-(4-methyl-6-{[4-(trifluoromethyl)pyridin-2-yl]amino}pyridin-2-yl)-1H-1,2,3-triazol-1-yl]propane-1,2-diol]",4 nM
6,"Cc1cc(Nc2cc(C(F)(F)F)ccn2)nc(-c2cn(C[C@]3(O)C[C@H](C#N)C3)nn2)c1 [Example 4.26, trans-3-hydroxy-3-{[4-(4-methyl-6-{[4-(trifluoromethyl)pyridin-2-yl]amino}pyridin-2-yl)-1H-1,2,3-triazol-1-yl]methyl}cyclobutanecarbonitrile]",0.7 nM
7,"Cc1cc(Nc2nccc(C(F)(F)F)n2)cc(-n2cc([C@]3(O)CC[C@@H](O)CC3)nn2)c1 [Example 15.17, cis-1-[1-(3-methyl-5-{[4-(trifluoromethyl)pyrimidin-2-yl]amino}phenyl)-1H-1,2,3-triazol-4-yl]cyclohexane-1,4-diol]",30 nM
8,"Cc1cc(Nc2nccc(C(F)(F)F)n2)cc(-n2cc([Si](C)(C)C)nn2)c1 [Example 15.12, N-{3-methyl-5-[4-(trimethylsilyl)-1H-1,2,3-triazol-1-yl]phenyl}-4-(trifluoromethyl)pyrimidin-2-amine]",284 nM
9,"Cc1cc(Nc2nccc(C(F)F)n2)cc(-c2cn(CC3OC(=O)NC3C)nn2)c1 (single isomer, unassigned) [Example 7.41, 5-{[4-(3-{[4-(difluoromethyl)pyrimidin-2-yl]amino}-5-methylphenyl)-1H-1,2,3-triazol-1-yl]methyl}-4-methyl-1,3-oxazolidin-2-one]",12.8 nM
10,"Cc1cc(Nc2cc(OC3CCOC3)ccn2)nc(-c2cn(C(C)c3ccc(C(=O)O)cc3)nn2)c1 (stereo not drawn) [Example 2.5, 4-{1-[4-(4-methyl-6-{[4-(tetrahydrofuran-3-yloxy)pyridin-2-yl]amino}pyridin-2-yl)-1H-1,2,3-triazol-1-yl]ethyl}benzoic acid]",132 nM
11,"Cc1cc(Nc2cc(C(F)(F)F)ccn2)nc(-c2cn([C@@H](C)C(=O)NCC(=O)O)nn2)c1 [Example 3.15, N-{(2S)-2-[4-(4-methyl-6-{[4-(trifluoromethyl)pyridin-2-yl]amino}pyridin-2-yl)-1H-1,2,3-triazol-1-yl]propanoyl}glycine]",8.9 nM
12,"Cc1cc(Nc2cc(C(F)(F)F)ccn2)nc(-c2cn(C3CCC(C(=O)O)C(C)(C)C3)nn2)c1 (single isomer, unassigned) [Example 3.6, (R or S) 2,2-dimethyl-4-[4-(4-methyl-6-{[4-(trifluoromethyl)pyridin-2-yl]amino}pyridin-2-yl)-1H-1,2,3-triazol-1-yl]cyclohexanecarboxylic acid]",3.5 nM
13,"Cc1cc(Nc2cc(C3CC3)ccn2)nc(-c2cn(C(C)c3ccc(C(=O)O)cc3)nn2)c1 (stereo not drawn) [Example 2.11, 4-[1-(4-{6-[(4-cyclopropylpyridin-2-yl)amino]-4-methylpyridin-2-yl}-1H-1,2,3-triazol-1-yl)ethyl]benzoic acid]",6.4 nM
14,"Cc1cc(Nc2cc(C(F)(F)F)ccn2)nc(-c2cn(C(C)c3ccc(C(=O)O)cc3)nn2)c1 (racemic) [Example 5.41, 4-{1-[4-(4-methyl-6-{[4-(trifluoromethyl)pyridin-2-yl]amino}pyridin-2-yl)-1H-1,2,3-triazol-1-yl]ethyl}benzoic acid]",1.1 nM
15,"Cc1cc(Nc2cc(C(F)(F)F)ccn2)nc(-c2cn(C3CNCC3O)nn2)c1 (racemic) [Example 5.22, 4-[4-(4-methyl-6-{[4-(trifluoromethyl)pyridin-2-yl]amino}pyridin-2-yl)-1H-1,2,3-triazol-1-yl]pyrrolidin-3-ol]",19.8 nM
16,"Cc1cc(Nc2nccc(C(F)(F)F)n2)cc(-c2cn(C(C)C(=O)O)nn2)c1 (racemic) [Example 5.64, 2-[4-(3-methyl-5-{[4-(trifluoromethyl)pyrimidin-2-yl]amino}phenyl)-1H-1,2,3-triazol-1-yl]propanoic acid]",41.4 nM
17,"Cc1cc(Nc2cc(C(F)(F)F)ccn2)nc(-c2cn(CC(O)CF)nn2)c1 (racemic) [Example 5.93, 1-fluoro-3-[4-(4-methyl-6-{[4-(trifluoromethyl)pyridin-2-yl]amino}pyridin-2-yl)-1H-1,2,3-triazol-1-yl]propan-2-ol]",6 nM
18,"Cc1cc(Nc2nccc(C(F)F)n2)cc(-c2cn(C(C)C3CNC(=O)O3)nn2)c1 (single isomer, unassigned) [Example 7.3, 5-(1-(4-(3-((4-(difluoromethyl)pyrimidin-2-yl)amino)-5-methylphenyl)-1H-1,2,3-triazol-1-yl)ethyl)oxazolidin-2-one]",5.5 nM
19,"Cc1cc(Nc2cc(C(F)(F)F)ccn2)nc(-c2cn(CCCO)nn2)c1 [Example 5.94, 3-[4-(4-methyl-6-{[4-(trifluoromethyl)pyridin-2-yl]amino}pyridin-2-yl)-1H-1,2,3-triazol-1-yl]propan-1-ol]",474 nM
20,"Cc1cc(Nc2nccc(C(F)(F)F)n2)cc(-c2cn(CCCO)nn2)c1 [Example 5.77, 3-[4-(3-methyl-5-{[4-(trifluoromethyl)pyrimidin-2-yl]amino}phenyl)-1H-1,2,3-triazol-1-yl]propan-1-ol]",50.7 nM
21,"Cc1cc(Nc2cc(C(F)(F)F)ccn2)nc(-c2cn(C(C)C(=O)N[C@@H](CO)Cc3ccccc3)nn2)c1 (stereo partly drawn) [Example 1.27, N-[(1R)-1-benzyl-2-hydroxyethyl]-2-[4-(4-methyl-6-{[4-(trifluoromethyl)pyridin-2-yl]amino}pyridin-2-yl)-1H-1,2,3-triazol-1-yl]propanamide]",102 nM
22,"Cc1cc(Nc2nccc(C(F)F)n2)cc(-c2cn(CC3CNC(=O)O3)nn2)c1 (single isomer, unassigned) [Example 7.4, 5-((4-(3-((4-(difluoromethyl)pyrimidin-2-yl)amino)-5-methylphenyl)-1H-1,2,3-triazol-1-yl)methyl)oxazolidin-2-one]",1.8 nM

# Next, values leading:
row,IC50,Compound
1,5.4 nM,"Cc1cc(Nc2nccc(C(F)F)n2)cc(-c2cn(CC3CNC(=O)C3)nn2)c1 (single isomer, unassigned) [Example 28.2, 4-((4-(3-((4-(difluoromethyl)pyrimidin-2-yl)amino)-5-methylphenyl)-1H-1,2,3-triazol-1-yl)methyl)pyrrolidin-2-one]"
2,18.2 nM,"Cc1cc(Nc2ncc(F)c(C(F)F)n2)cc(-c2cn(CC(C)(O)C(C)(C)O)nn2)c1 (stereo not drawn) [Example 21.34, 1-[4-(3-{[4-(difluoromethyl)-5-fluoropyrimidin-2-yl]amino}-5-methylphenyl)-1H-1,2,3-triazol-1-yl]-2,3-dimethylbutane-2,3-diol]"
3,14.3 nM,"Cc1cc(Nc2nccc(C(F)F)n2)cc(-c2cn(CC3CNCCO3)nn2)c1 (single isomer, unassigned) [Example 22.1, 4-(Difluoromethyl)-N-(3-methyl-5-(1-(morpholin-2-ylmethyl)-1H-1,2,3-triazol-4-yl)phenyl) pyrimidin-2-amine]"
4,6.3 nM,"Cc1cc(Nc2nccc(C(F)F)n2)cc(-c2cn(C(C)C(C)(O)CO)nn2)c1 (single isomer, unassigned) [Example 30.2, 3-(4-(3-((4-(Difluoromethyl)pyrimidin-2-yl)amino)-5-methylphenyl)-1H-1,2,3-triazol-1-yl)-2-methylbutane-1,2-diol]"
5,13.1 nM,"Cc1cc(Nc2nccc(C(F)F)n2)cc(-c2cn(CC(C)(O)CO)nn2)c1 (single isomer, unassigned) [Example 21.8, 3-[4-(3-{[4-(difluoromethyl)pyrimidin-2-yl]amino}-5-methylphenyl)-1H-1,2,3-triazol-1-yl]-2-methylpropane-1,2-diol]"
6,1.2 nM,"Cc1cc(Nc2cc(C(F)F)ccn2)nc(-c2cn(C(C)C(C)(O)CO)nn2)c1 (single isomer, unassigned) [Example 30.8, 3-[4-(6-{[4-(difluoromethyl)pyridin-2-yl]amino}-4-methylpyridin-2-yl)-1H-1,2,3-triazol-1-yl]-2-methylbutane-1,2-diol]"
7,20.1 nM,"Cc1cc(Nc2cc(C)c(Cl)cn2)nc(-c2cn(CC(C)(O)C(C)(C)O)nn2)c1 (stereo not drawn) [Example 21.10, 1-(4-{6-[(5-chloro-4-methylpyridin-2-yl)amino]-4-methylpyridin-2-yl}-1H-1,2,3-triazol-1-yl)-2,3-dimethylbutane-2,3-diol]"
8,83.9 nM,"Cc1cc(Nc2nccc(C)n2)cc(-c2cn(CC(C)(O)C(C)(C)O)nn2)c1 (stereo not drawn) [Example 21.35, 2,3-dimethyl-1-(4-{3-methyl-5-[(4-methylpyrimidin-2-yl)amino]phenyl}-1H-1,2,3-triazol-1-yl)butane-2,3-diol]"
